Measured values published in patent US12421225B2, “Heteroaromatic amide derivative and medicament containing the same” (KAKEN PHARMACEUTICAL CO., LTD., priority 2018, dated 2025).

Target: human Nav1.7 (Homo sapiens (Human), UniProt Q15858)
Test: Human Nav1.7 inhibitory activity evaluation (automated patch clamp QPatch16X, HEK293A cells stably expressing human Nav1.7 and human Navβ1)
Type: cell-based
Details: human Nav1.7, automated patch clamp
Procedure, shortened: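 IC50 calculated from the concentration-response of inward current evoked by the second −10 mV, 50 ms depolarisation, which follows a 15 s conditioning step at roughly 30-40% inactivation and a 100 ms −120 mV interval. Cells: HEK293A expressing human Nav1.7/Navβ1, automated patch clamp, room temperature, 0.1% DMSO final.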

Sequence of human Nav1.7 (Q15858 whole entry): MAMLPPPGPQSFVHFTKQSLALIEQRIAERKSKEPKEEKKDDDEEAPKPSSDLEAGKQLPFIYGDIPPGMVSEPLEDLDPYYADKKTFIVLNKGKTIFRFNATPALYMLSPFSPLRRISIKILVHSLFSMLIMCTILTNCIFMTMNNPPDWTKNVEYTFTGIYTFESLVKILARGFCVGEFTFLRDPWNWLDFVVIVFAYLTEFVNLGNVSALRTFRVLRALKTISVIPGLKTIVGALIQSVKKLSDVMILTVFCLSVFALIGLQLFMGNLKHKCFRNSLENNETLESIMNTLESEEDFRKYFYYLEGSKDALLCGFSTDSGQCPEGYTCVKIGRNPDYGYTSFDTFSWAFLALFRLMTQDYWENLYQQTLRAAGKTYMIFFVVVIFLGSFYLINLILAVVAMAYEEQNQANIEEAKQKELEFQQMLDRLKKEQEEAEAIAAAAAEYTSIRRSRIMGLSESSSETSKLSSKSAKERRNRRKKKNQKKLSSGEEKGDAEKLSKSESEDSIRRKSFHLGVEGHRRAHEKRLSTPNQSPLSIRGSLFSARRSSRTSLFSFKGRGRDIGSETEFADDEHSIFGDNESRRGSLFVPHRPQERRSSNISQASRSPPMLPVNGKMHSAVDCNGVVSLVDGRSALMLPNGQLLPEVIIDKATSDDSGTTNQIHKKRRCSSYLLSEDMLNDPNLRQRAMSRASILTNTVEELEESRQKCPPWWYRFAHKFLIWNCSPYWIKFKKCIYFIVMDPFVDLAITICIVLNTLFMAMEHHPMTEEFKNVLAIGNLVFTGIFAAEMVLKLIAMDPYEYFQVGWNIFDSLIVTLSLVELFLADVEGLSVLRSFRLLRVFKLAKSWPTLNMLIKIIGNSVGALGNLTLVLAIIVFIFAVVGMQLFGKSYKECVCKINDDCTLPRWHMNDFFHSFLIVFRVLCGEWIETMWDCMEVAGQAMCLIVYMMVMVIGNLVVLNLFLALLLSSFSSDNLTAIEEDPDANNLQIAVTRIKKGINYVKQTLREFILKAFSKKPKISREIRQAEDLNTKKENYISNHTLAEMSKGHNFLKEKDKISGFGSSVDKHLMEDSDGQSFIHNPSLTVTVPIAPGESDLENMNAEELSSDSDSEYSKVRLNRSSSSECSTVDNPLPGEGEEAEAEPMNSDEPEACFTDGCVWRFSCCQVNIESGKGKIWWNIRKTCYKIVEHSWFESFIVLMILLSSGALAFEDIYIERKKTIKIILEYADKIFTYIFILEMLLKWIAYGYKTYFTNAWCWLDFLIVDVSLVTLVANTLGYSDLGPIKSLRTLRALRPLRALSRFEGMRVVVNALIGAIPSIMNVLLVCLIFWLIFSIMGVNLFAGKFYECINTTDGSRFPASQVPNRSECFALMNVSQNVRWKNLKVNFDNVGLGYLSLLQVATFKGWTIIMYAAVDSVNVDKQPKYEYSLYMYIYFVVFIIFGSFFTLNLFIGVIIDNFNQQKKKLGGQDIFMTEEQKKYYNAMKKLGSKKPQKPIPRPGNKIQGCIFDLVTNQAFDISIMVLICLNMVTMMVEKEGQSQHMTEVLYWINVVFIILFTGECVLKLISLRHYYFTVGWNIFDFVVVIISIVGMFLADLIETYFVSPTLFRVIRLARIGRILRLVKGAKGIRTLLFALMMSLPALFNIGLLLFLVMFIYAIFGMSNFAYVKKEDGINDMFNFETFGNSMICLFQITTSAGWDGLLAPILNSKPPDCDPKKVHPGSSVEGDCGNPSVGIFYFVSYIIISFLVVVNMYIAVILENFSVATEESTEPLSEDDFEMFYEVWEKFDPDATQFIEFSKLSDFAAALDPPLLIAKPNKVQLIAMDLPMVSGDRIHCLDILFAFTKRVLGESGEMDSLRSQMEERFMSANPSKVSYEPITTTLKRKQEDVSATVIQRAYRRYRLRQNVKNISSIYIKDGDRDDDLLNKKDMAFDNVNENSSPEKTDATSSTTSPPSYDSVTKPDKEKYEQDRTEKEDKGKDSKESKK
Sequence of human Nav1.7 (Q07699 19-218 partner): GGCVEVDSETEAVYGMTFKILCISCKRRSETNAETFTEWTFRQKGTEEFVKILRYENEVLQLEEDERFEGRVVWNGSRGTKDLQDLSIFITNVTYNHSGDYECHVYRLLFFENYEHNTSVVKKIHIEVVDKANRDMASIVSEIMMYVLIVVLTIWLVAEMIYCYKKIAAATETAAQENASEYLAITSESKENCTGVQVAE

| SMILES | IC50 |
| --- | --- |
| N#Cc1ccc2c(c1)C[C@@H](NC(=O)c1cc3n(n1)CCN(C1(CC(F)(F)F)CC1)C3)CO2 [Example 503] | < 10000 nM |
| O=C(N[C@H]1COc2ccc(COCC(F)(F)F)cc2C1)c1cc2n(n1)CCN(CCC1CC1)C2 [Example 505] | < 1000 nM |
| O=C(NC1COc2ccccc2C1)c1cc2n(n1)CCN(c1ccc(F)cc1)C2 (centres unmarked) [Example 508] | < 1000 nM |
| O=C(N[C@H]1COc2ccc(Cl)cc2C1)c1nn2c(c1-c1ccccc1)CN(CC(F)(F)F)CC2 [Example 509] | < 10000 nM |
| O=C(NC1COc2ccccc2C1)c1cc2n(n1)CCN(C(=O)CCc1ccccc1)C2 (centres unmarked) [Example 510] | < 10000 nM |
| O=C(NC1COc2ccccc2C1)c1cc2n(n1)CCN(S(=O)(=O)c1ccccc1C(F)(F)F)C2 (centres unmarked) [Example 511] | < 10000 nM |
| Cc1cc(-c2c(C(=O)N[C@H]3COc4ccc(C(F)(F)F)cc4C3)nc3n2CCOC3)[nH]n1 [Example 512] | < 10000 nM |
| O=C(N[C@H]1COc2ccc(C(F)(F)F)cc2C1)c1nn2c(c1-c1cccc(F)n1)COCC2 [Example 513] | < 1000 nM |
| O=C(N[C@H]1COc2ccc(Cl)cc2C1)c1nn2c(c1-c1ccccn1)COCC2 [Example 515] | < 1000 nM |
| CCc1cccc(-c2c(C(=O)N[C@H]3COc4ccc(C#N)cc4C3)nn3c2COCC3)n1 [Example 516] | < 10000 nM |
| O=C(N[C@H]1COc2ccc(C(F)(F)F)cc2C1)c1nn2c(c1-c1ccc3cccnc3c1)COCC2 [Example 517] | < 10000 nM |
| O=C(N[C@H]1COc2ccc(C(F)(F)F)cc2C1)c1nn2c(c1-c1cccc(CO)n1)COCC2 [Example 519] | < 10000 nM |
| O=C(N[C@H]1COc2ccc(C(F)(F)F)cc2C1)c1nn2c(c1-c1cccc(COCC(F)(F)F)n1)COCC2 [Example 520] | < 1000 nM |
| O=C(N[C@H]1COc2ccc(C(F)(F)F)cc2C1)c1nn2c(c1-c1cccc(CC(F)(F)F)n1)COCC2 [Example 523] | < 1000 nM |
| Cc1cccc(-c2c(C(=O)N[C@H]3COc4ccc(C(F)(F)F)cc4C3)nn3c2NCCC3)n1 [Example 524] | < 10000 nM |
| O=C(N[C@H]1COc2ccc(COCC(F)(F)F)cc2C1)c1nn2c(c1-c1ccccn1)NCCC2 [Example 525] | < 10000 nM |
| O=C(N[C@H]1COc2ccc(C(F)(F)F)cc2C1)c1nn2c(c1-c1cccc(C(O)C(F)(F)F)n1)COCC2 (some centres unmarked) [Example 527] | < 1000 nM |
| O=C(N[C@H]1COc2ccc(C(F)(F)F)cc2C1)c1nn2c(c1-c1ccccn1)COCCC2 [Example 528] | < 10000 nM |
| COc1cccc(-c2c(C(=O)N[C@H]3COc4ccc(C(F)(F)F)cc4C3O)nn3c2COCC3)n1 (some centres unmarked) [Example 529] | < 1000 nM |
| O=C(N[C@H]1COc2ccc(C(F)(F)F)cc2C1)c1cc2n(n1)CCC(COCC1(F)CC1)O2 (some centres unmarked) [Example 533] | < 1000 nM |
| O=C(N[C@H]1COc2ccc(C(F)(F)F)cc2C1OCC(F)(F)F)c1cc2n(n1)CCC(C(F)F)O2 (some centres unmarked) [Example 536] | < 10000 nM |
| O=C(N[C@H]1COc2cc(C(F)(F)F)nn2C1)c1cc2n(n1)CCC(c1ccccc1F)O2 (some centres unmarked) [Example 537] | < 10000 nM |
| O=C(N[C@H]1COc2ccc(C(F)(F)F)cc2C1)c1cc2n(n1)CC(COCC1CC1)CO2 (some centres unmarked) [Example 539] | < 10000 nM |
| O=C(NCC1COc2ccc(Cl)cc2C1)c1cc2n(n1)CCC(COC(F)(F)F)O2 (centres unmarked) [Example 542] | < 10000 nM |
| CCC1(O)c2cc(C(F)(F)F)ccc2OC[C@@H]1NC(=O)c1cc2n(n1)CCC(C(F)F)O2 (some centres unmarked) [Example 544] | < 10000 nM |

| SMILES | IC50 |
| --- | --- |
| O=C(N[C@H]1COc2ccc(COCC(F)(F)F)cc2C1)c1cc2n(n1)CCC1(CC1)CO2 [Example 545] | < 1000 nM |
| O=C(N[C@H]1COc2ccc(C(F)(F)F)cc2C1OC(F)(F)F)c1cc2n(n1)CCC(C(F)F)O2 (some centres unmarked) [Example 546] | < 1000 nM |
| O=C(N[C@H]1COc2ccc(Cl)cc2C1)c1cn2c(n1)CC(CNCC(F)(F)F)CO2 (some centres unmarked) [Example 548] | < 10000 nM |
| CCC1CCn2nc(C(=O)N[C@H]3COc4ccc(C(F)(F)F)nc4C3)cc2O1 (some centres unmarked) [Example 549] | < 10000 nM |
| O=C(N[C@H]1COc2ccc(C(F)(F)F)nc2C1)c1cc2n(n1)CCC(c1ccccc1F)O2 (some centres unmarked) [Example 550] | < 1000 nM |
| COc1c(C(F)(F)F)ccc2c1C[C@@H](NC(=O)c1cc3n(n1)CCC(C(F)F)O3)CO2 (some centres unmarked) [Example 551] | < 10000 nM |
| N#CC1(COCC2CCn3nc(C(=O)N[C@H]4COc5ccc(C(F)(F)F)cc5C4)cc3O2)CC1 (some centres unmarked) [Example 553] | < 10000 nM |
| N#Cc1ccc2c(c1)C[C@@H](NC(=O)c1cc3n(n1)CCC(COCC(F)(F)F)CO3)CO2 (some centres unmarked) [Example 555] | < 1000 nM |
| O=C(N[C@H]1COc2ccc(CC(F)F)cc2C1)c1cc2n(n1)CCC(COCC(F)(F)F)CO2 (some centres unmarked) [Example 557] | < 1000 nM |
| O=C(N[C@H]1COc2ccc(C(F)(F)F)cc2C1O)c1cc2n(n1)CCC(COCC1CC1)O2 (some centres unmarked) [Example 558] | < 1000 nM |
| O=C(N[C@H]1COc2ccc(C(F)(F)F)cc2C1O)c1cc2n(n1)CCC(COCC1CC1)O2 (some centres unmarked) [Example 559] | < 10000 nM |
| O=C(N[C@H]1COc2ccc(C(F)(F)F)cc2C1O)c1cc2n(n1)CC(COCC1CC1)O2 (some centres unmarked) [Example 560] | < 1000 nM |
| O=C(N[C@H]1COc2ccc(C(F)(F)F)cc2C1O)c1cc2n(n1)CCC(COCC(F)(F)F)O2 (some centres unmarked) [Example 561] | < 10000 nM |
| N#Cc1ccc2c(c1)C[C@@H](NC(=O)c1cc3n(n1)CCC(CC(F)(F)F)O3)CO2 (some centres unmarked) [Example 562] | < 10000 nM |
| O=C(N[C@H]1COc2ccc(CC(F)F)cc2C1)c1cc2n(n1)CC(CC1CCOCC1)O2 (some centres unmarked) [Example 564] | < 10000 nM |
| N#Cc1ccc2c(c1)C[C@@H](NC(=O)c1cc3n(n1)CC(CC1CCOCC1)O3)CO2 (some centres unmarked) [Example 565] | < 1000 nM |
| O=C(N[C@H]1COc2ccc(I)cc2C1)c1cc2n(n1)CCC(C(F)F)O2 (some centres unmarked) [Example 566] | < 1000 nM |
| O=C(N[C@H]1COc2ccc(CC(F)F)cc2C1)c1cc2n(n1)CCC(COCC1(F)CC1)O2 (some centres unmarked) [Example 567] | < 1000 nM |
| COC1c2cc(C(F)(F)F)ccc2OC[C@@H]1NC(=O)c1cc2n(n1)CC(COCC(F)(F)F)O2 (some centres unmarked) [Example 569] | < 1000 nM |
| COC1c2cc(C(F)(F)F)ccc2OC[C@@H]1NC(=O)c1cc2n(n1)CCC(COCC(F)(F)F)O2 (some centres unmarked) [Example 570] | < 1000 nM |
| O=C(NC1COc2ccc(Cl)cc2C1O)c1cc2n(n1)CCC(COCC1CC1)O2 (centres unmarked) [Example 571] | < 10000 nM |
| N#Cc1ccc2c(c1)C(O)C(NC(=O)c1cc3n(n1)CCC(c1ccccc1F)O3)CO2 (centres unmarked) [Example 573] | < 10000 nM |
| O=C(N[C@H]1COc2cccc(Cl)c2C1)c1cc2n(n1)CCC(COCC(F)(F)F)O2 (some centres unmarked) [Example 574] | < 1000 nM |
| Cc1cccc(-c2c(C(=O)N[C@H]3COc4ccc(C(F)(F)F)cc4C3O)nn3c2COCC3)n1 (some centres unmarked) [Example 580] | < 1000 nM |
| CCc1cccc(-c2c(C(=O)N[C@H]3COc4ccc(C(F)(F)F)cc4C3O)nn3c2COCC3)n1 (some centres unmarked) [Example 581] | < 1000 nM |

| SMILES | IC50 |
| --- | --- |
| CCC1(O)CCn2nc(C(=O)N[C@H]3COc4ccc(C(F)(F)F)cc4C3)cc2OC1 (some centres unmarked) [Example 582] | < 10000 nM |
| O=C(N[C@H]1COc2ccc(C(F)(F)F)cc2C1)c1cc2n(n1)CCC(C1CCOCC1)O2 (some centres unmarked) [Example 583] | < 1000 nM |
| O=C(N[C@H]1COc2ccc(Cl)cc2C1)c1cc2n(n1)CCC(C1CCOCC1)O2 (some centres unmarked) [Example 584] | < 1000 nM |
| N#Cc1ccc2c(c1)C[C@@H](NC(=O)c1cc3n(n1)CCC(C1CCOCC1)O3)CO2 (some centres unmarked) [Example 585] | < 10000 nM |
| O=C(N[C@H]1COc2ccc(CC(F)F)cc2C1)c1cc2n(n1)CCC(C1CCOCC1)O2 (some centres unmarked) [Example 586] | < 1000 nM |
| O=C(N[C@H]1COc2ccc(C(F)(F)F)cc2C1O)c1cc2n(n1)CC(CSCC(F)(F)F)O2 (some centres unmarked) [Example 587] | < 10000 nM |
| O=C(N[C@H]1COc2ccc(C(F)(F)F)cc2C1O)c1cc2n(n1)CC(CCOCC(F)(F)F)O2 (some centres unmarked) [Example 588] | < 1000 nM |
| O=C(N[C@H]1COc2ccc(C(F)(F)F)cc2C1O)c1cc2n(n1)CC(CCOCC(F)(F)F)O2 (some centres unmarked) [Example 589] | < 10000 nM |
| O=C(N[C@H]1COc2ccc(C(F)(F)F)cc2C1O)c1cc2n(n1)CC(CCCOCC(F)(F)F)O2 (some centres unmarked) [Example 591] | < 1000 nM |
| O=C(N[C@H]1COc2ccc(C(F)(F)F)cc2C1O)c1cc2n(n1)CC(CCCOCC(F)(F)F)O2 (some centres unmarked) [Example 592] | < 10000 nM |
| O=C(N[C@H]1COc2ccc(C(F)(F)F)cc2C1O)c1cc2n(n1)CC(CCOCC1CC1)O2 (some centres unmarked) [Example 595] | < 1000 nM |
| CCC1CCn2nc(C(=O)N[C@H]3COc4ccc(C(F)(F)F)cc4C3O)cc2O1 (some centres unmarked) [Example 599] | < 1000 nM |
| O=C(N[C@H]1COc2ccc(COCC(F)(F)F)cc2C1)c1cc2n(n1)CCC(C1CCOCC1)O2 (some centres unmarked) [Example 606] | < 1000 nM |
| O=C(N[C@H]1COc2ccc(C(F)(F)F)cc2C1O)c1cc2n(n1)CC(CCCOCC(F)F)O2 (some centres unmarked) [Example 607] | < 1000 nM |
| O=C(N[C@H]1COc2ccc(C(F)(F)F)cc2C1O)c1cc2n(n1)CC(CCCOCC(F)F)O2 (some centres unmarked) [Example 609] | < 10000 nM |
| O=C(N[C@H]1COc2ccc(Cl)cc2C1)c1cc2n(n1)CCC(C1CCOC1)O2 (some centres unmarked) [Example 611] | < 1000 nM |
| O=C(N[C@H]1COc2ccc(C(F)(F)F)cc2C1)c1cc2n(n1)CCC(C1CCOC1)O2 (some centres unmarked) [Example 612] | < 10000 nM |
| O=C(N[C@H]1COc2ccc(C(F)(F)F)cc2C1F)c1cc2n(n1)CCC(C1CCOC1)O2 (some centres unmarked) [Example 613] | < 1000 nM |
| CC1(COCC2CC2)Cn2nc(C(=O)N[C@H]3COc4ccc(C#N)cc4C3)cc2O1 (some centres unmarked) [Example 618] | < 10000 nM |
| CC1(COCC2CC2)Cn2nc(C(=O)N[C@H]3COc4ccc(CC(F)F)cc4C3)cc2O1 (some centres unmarked) [Example 619] | < 10000 nM |
| O=C(N[C@H]1COc2ccc(C(F)(F)F)cc2C1)c1cc2n(n1)CCC(C1COCCO1)O2 (some centres unmarked) [Example 620] | < 1000 nM |
| COC1c2cc(C(F)(F)F)ccc2OC[C@@H]1NC(=O)c1cc2n(n1)CC(CCOCC(F)(F)F)O2 (some centres unmarked) [Example 621] | < 1000 nM |
| N#Cc1ccc2c(c1)C[C@@H](NC(=O)c1cc3n(n1)CC(CCC1CCOCC1)O3)CO2 (some centres unmarked) [Example 623] | < 1000 nM |
| O=C(N[C@H]1COc2ccc(C(F)(F)F)cc2C1F)c1cc2n(n1)CCC(COCC(F)F)O2 (some centres unmarked) [Example 624] | < 1000 nM |
